Patent US10322180B2, “Pharmaceutical composition comprising modified hemoglobin-based therapeutic agent for cancer targeting treatment and diagnostic imaging” (Vision Global Holdings Ltd., priority 2013, dated 2019)

Test system: Liver cancer cells, HepG2
Assay: Live cell imaging uptake, liver cancer cells
Type: cell-based, human
Conditions: FIG. 23A-23C
Protocol: Cancer cells (e.g. HepG2 liver cancer cells) are seeded onto glass bottom microwell dishes (MatTek Corporation). Live cells at defined zooms (63×, 20×) are acquired using Zeiss Observer Z1 widefield microscope, equipped with atmospheric/temperature-controlled chamber and motorized stage for multi-positional acquisition. The incubation is performed in an enclosed live cell imaging system purged with 0.1% 02 and 5% CO2 (premixed). Cells are exposed to (1) Hb-5FU-alkyl(non-cleavable)-FL conjugate, labeled with one fluorescent dye and (2) Hb-5Fu-Dan-TAM conjugate, labeled with two fluorescent dyes; for 15 min prior to the acquisition of images every 3 min for a period of 2 h. Images are deconvolved and compacted into time-lapse movies using the MetaMorph software (Molecular Device).

fluorescent labeled hemoglobin: hemoglobin linked to one or more molecules of fluorescein (fluorescein 6-carboxysuccinimidyl ester, F-6-NHS)
entry into liver cancer cells (fluorescent signal under microscope): can also enter into the cancer cells
entry into liver cancer cells (fluorescent signal under microscope) (listed as fluorescent labeled modified hemoglobin): can enter into liver cancer cells successfully
